Reference: PMC10276006, “Mechanisms of simultaneous linear and nonlinear computations at the mammalian cone photoreceptor synapse” (Nature Communications, 2023)

How the values were obtained:
[1] = system: T1, cb1a cell KARs (kainate receptors of cb1a Off bipolar cells); details: mean of n = 6 somas (Hill n 1.11); 35 µM GYKI 53655 blocks AMPA receptors; pH 7.4; 32-33 °C
T1 construct: gene GRIK1

[2] = system: T1, cb1a cell KARs (kainate receptors of cb1a Off bipolar cells); details: desensitization by glutamate; supplement only
[3] = system: T2, cone glutamate transporter (TBOA-sensitive; EAAT5 immunolabelled at cone terminal); details: read-out: steady state EC50
T2 construct: gene SLC1A7

EC50 [1]: 1400 ± 160 µM | EC50 [3]: 0.71 µM
SMILES: N[C@@H](CCC(=O)O)C(=O)O [glutamate]
IC50 [2]: 30.4 ± 10.2 µM
